# Reference: patent US4038407A, “Benzisothiazoline-1,1-dioxide derivatives, compositions and methods” (Boehringer Ingelheim GmbH, priority 1975, dated 1977)
# Counter-ions that a name gives are not always drawn.
# Assays:
# [1] = system: heart rate of guinea pigs under urethane anesthesia; assay: Activity on heart frequency of anesthetized guinea pigs; assay type: in vivo, guinea pig; conditions: ECG
# Experimental: 1. Activity on heart frequency of anesthetized guinea pigs:
# The heart rate of guinea pigs under urethane anesthesia was registered by an electrocardiogram. The test compound was administered intravenously at increasing dosage increments between 0.5 and 20 mg/kg.
# [2] = system: isolated, spontaneously beating auricles of guinea pigs; assay: Effect on heart rate in the isolated auricle of the guinea pig; assay type: cell-based; conditions: Cavia porcellus; 10^-5 g/ml in organ bath, tyrode solution, 30° C., average of 5 auricles; read-out: Change in heart rate in %
# Experimental: 2. Effect on heart rate in the isolated auricle of the guinea pig:
# The effect on isolated, spontaneously beating auricles of guinea pigs of male and female sex having a body weight between 300 and 400 gm were investigated in an organ bath filled with tyrode solution. The nutritive solution was infused with carbogen (95% of O2 and 5% of CO2) and maintained at 30° C. The contractions were registered isometrically with a Statham-Force-transducer on a Grass-polygraph. The test compound was added to the organ bath so that the final concentration was 10^-^5 g/ml in each case. 5 auricles were used for each solution.
# The following table gives the percentage decrease in the heart rate from an average of 5 auricles at a test compound concentration of 10^-^5 g/ml).
# [3] = Acute toxicity in mice; conditions: mouse, in vivo, observation time 14 days
# Experimental: The acute toxicity of the compounds in question was determined in mice (observation time: 14 days) after oral or intravenous application. The LD50 was calculated from the percentage of animals which died after different doses within the observation time (see J. Pharmacol. exp. Therap. 96, 99 (1949)): […]
SMILES,Percentage change in heart rate ([1]; 0.5 mg/kg i.v.) [%],Percentage change in heart rate ([1]; 1.0 mg/kg i.v.) [%],Percentage change in heart rate ([1]; 2.0 mg/kg i.v.) [%],Percentage change in heart rate ([1]; 5.0 mg/kg i.v.) [%],Percentage change in heart rate ([1]; 10.0 mg/kg i.v.) [%],Percentage change in heart rate ([1]; 20.0 mg/kg i.v.) [%],inhibition at 10 µg/mL [2] [%],LD50 at 336 h ([3]; iv) [mg/kg],LD50 at 336 h ([3]; po) [mg/kg]
"COc1ccc(CCN(C)CCCN2Cc3cc(OC)c(OC)cc3C2=O)cc1OC [A, 5,6-Dimethoxy-2N-(3-[α-(3,4-dimethoxy)-phenylethyl-methylamino]-propyl)-phthalimidine hydrochloride]",-23.5,-36.1,-47.2,-51.6,-59.1,-67.2,52,98,1570
"COc1ccc(CCN(C)CCCN2Cc3cc(OC)c(OC)cc3S2(=O)=O)cc1OC [B, 5,6-Dimethoxy-2-(3-[α-(3,4-dimethoxy)-phenylethyl-methylamino]-propyl)-1,2-benzisothiazoline-1,1-dioxide hydrochloride]",-9.8,-20.0,-27.4,-37.6,-46.9,-53.9,60,100,–
"COc1cc2c(cc1OC)C(=O)N(CCCN(C)CCc1ccc3c(c1)OCO3)C2 [D, 5,6-Dimethoxy-2N-(3-[α-(3,4-methylenedioxy)-phenylethylmethylamino]-propyl)-phthalimidine hydrochloride]",–,–,–,–,–,–,51,–,–
"CN(CCCN1Cc2cc3c(cc2C1=O)OCCO3)CCc1ccc2c(c1)OCO2 [E, 5,6-Ethylenedioxy-2N-(3-[α-(3,4-methylenedioxy)-phenylethyl-methylamino]-propyl)-phthalimidine hydrochloride]",–,–,–,–,–,–,48,–,–
